Measured values taken from patent US20240197869A1, “HYPERACTIVATORS OF MAMMALIAN DENDRITIC CELLS” (Corner Therapeutics, Inc., priority 2021, published 2024).
Entries after “also recorded” stand apart in the source; their conditions may differ. Residues, ends and D or L forms follow the SMILES beside them. *: point of attachment. X1 = CCCCCCCCCCCCCCCC(=O)OCC(C*)OC(=O)CCCCCCCCCCCCCCC

Columns and labels:
[1] = system: canine peripheral blood mononuclear cells (PBMCs); experiment: IL-1β secretion by canine PBMCs (ELISA); type: cell-based; settings: stimulus as labelled, no hyperactivating lipid, 2 days
Description: (§1) Isolation of PBMCs from Whole Blood. PBMCs were isolated from whole blood using density gradient centrifugation with Ficoll-Paque PLUS (Cytivia). Whole blood was diluted 1:1 with PBS, layered on top of Ficoll-Paque PLUS and centrifuged at 1000×g for 30 minutes at room temperature. PBMCs were collected, washed twice in PBS, and incubated with Ack lysis buffer (Lonza) to remove any remaining red blood cells.
(§2) Cell Culture and Stimulation. […] Cells were plated at 1×10^5 (canine cells) or 1×10^6 (human cells) per well in 96-well flat bottom tissue culture plates. Lyophilized Vaccigrade R848 (Invivogen) was reconstituted and diluted according to manufacturer's recommendations and added to cells at a final concentration of 1 μg/mL.
Quantification of Cytokine Secretion. IL-1β secretion from human PBMCs was assessed using one of the following kits: ELISA MAX Deluxe Set Human IL-1β kit (Biolegend), Invitrogen Human IL-1β kit, or the Lumit™ Human IL-1β Immunoassay (Promega). IFNγ secretion from human PBMCs was assessed using the ELISA MAX Deluxe Set Human IFNγ (Biolegend) and TNFα secretion from human PBMCs was assessed using the Human TNFα Uncoated ELISA kit (Invitrogen). […] IL-1β secretion from canine PBMCs was assessed using the Canine IL-1β/IL-1F2 DuoSet ELISA (R&D) according to manufacturer's instructions with the following modifications: i) total sample+buffer volume for incubation was reduced from 100 μL to 50 μL; ii) sample incubation was completed overnight at 4° C. on an orbital shaker. For all ELISAs, absorbance was measured at 450 nm, with a 570 nm correction, using a Spectramax M5e plate reader (Molecular Devices). For Lumit™ assays, luminescence was measured on all wavelengths using a Spectramax M5e plate reader (Molecular Devices) with an integration time of 500 ms. […]

[2] = system: human PBMCs; experiment: Cytokine secretion (IL-1β, IFNγ, TNFα) by human PBMCs; type: cell-based; settings: 2 days
Description: as §1, §2
Quantification of Cytokine Secretion. IL-1β secretion from human PBMCs was assessed using one of the following kits: ELISA MAX Deluxe Set Human IL-1β kit (Biolegend), Invitrogen Human IL-1β kit, or the Lumit™ Human IL-1β Immunoassay (Promega). IFNγ secretion from human PBMCs was assessed using the ELISA MAX Deluxe Set Human IFNγ (Biolegend) and TNFα secretion from human PBMCs was assessed using the Human TNFα Uncoated ELISA kit (Invitrogen). ELISAs were performed according to manufacturer's instructions with the following modifications: i) total sample+buffer volume for incubation was reduced from 100 μL to 50 μL; ii) the top standard was prepared at […], with two-fold dilutions to […]; and iii) sample incubation was completed overnight at 4 C on an orbital shaker. Lumit™ assays were performed according to manufacturer's instructions. IL-1β secretion from canine PBMCs was assessed using the Canine IL-1β/IL-1F2 DuoSet ELISA (R&D) according to manufacturer's instructions with the following modifications: i) total sample+buffer volume for incubation was reduced from 100 μL to 50 μL; ii) sample incubation was completed overnight at 4° C. on an orbital shaker. For all ELISAs, absorbance was measured at 450 nm, with a 570 nm correction, using a Spectramax M5e plate reader (Molecular Devices). For Lumit™ assays, luminescence was measured on all wavelengths using a Spectramax M5e plate reader (Molecular Devices) with an integration time of 500 ms. To determine cytokine concentrations in supernatants, sample concentrations were interpolated using a standard curve via 4PL analysis on GraphPad Prism 9 (GraphPad Software). The interpolated results of samples were then adjusted for any dilutions made to the supernatant.

[3] = system: human monocyte-derived dendritic cells (moDCs); experiment: PAMP screen: IL-1β secretion by human moDCs with PRR agonist and 22:0 Lyso PC; type: cell-based; settings: 2 days
Description: (§3) Pathogen-Associated Molecular Pattern (PAMP) Screen. Innate immune signaling pathway agonists were purchased from Invivogen. Lyophilized stocks were reconstituted and stored according to manufacturer's instructions and at recommended concentrations. […] Innate immune signaling agonists were diluted in R10 media to the manufacturer's recommended working concentration and then added onto cells. 22:0 Lyso PC was then reconstituted from a lyophilized stock in R10 and then further diluted. The lipid was added onto cells at a final concentration of 20 μM. Cells were incubated for 2 days, then cultures were collected for endpoint analyses.
(§4) Quantification of IL-1beta Secretion. IL-1beta secretion was assessed using the ELISA MAX Deluxe Set Human IL-1beta kit (Biolegend). ELISAs were performed according to manufacturer's instructions with the following modifications: i) total sample volume for incubation was reduced from […] the top standard was prepared at […], with two-fold dilutions to […]; and iii) sample incubation was completed overnight at 4 C on an orbital shaker. […] To determine IL-1beta concentration in supernatants, sample IL-1beta concentrations were interpolated using a standard curve via 4PL analysis on GraphPad Prism 9 (GraphPad Software). The interpolated results of samples were then adjusted for any dilutions made to the supernatant.

[4] = system: human monocyte-derived dendritic cells (moDCs); experiment: PAMP screen: viability of human moDCs with PRR agonist and 22:0 Lyso PC; type: cell-based; settings: 2 days
Description: as §3
(§5) Quantification of Cell Viability.

[5] = system: human monocyte-derived dendritic cells (moDCs); experiment: DAMP screen: IL-1β secretion by LPS-activated human moDCs (ELISA); type: cell-based
Description: Danger-Associated Molecular Pattern (DAMP) Screen.
as §4

[6] = system: human monocyte-derived dendritic cells (moDCs); experiment: Lipid titration: IL-1β secretion by LPS-activated human moDCs; type: cell-based; settings: for Activity Units (AU) ± SD (lipid activity index): reciprocal of lowest concentration giving IL-1β two-fold over LPS x highest IL-1β signal, lipid 1.3-82.5 μM + LPS
Description: as §4

[7] = system: canine peripheral blood mononuclear cells (PBMCs); experiment: Viability of canine PBMCs (CellTiter-Glo); type: cell-based; settings: lipid combined with R848, 2 days; relative to R848 alone
Description: as §1, §2, §5

[8] = system: human PBMCs; experiment: Viability of human PBMCs (CellTiter-Glo); type: cell-based; settings: 2 days post-activation; lipids combined with R848
Description: as §1, §2, §5

[9] = system: non-human primate PBMCs; experiment: Cytokine secretion by non-human primate PBMCs (LegendPlex); type: cell-based, cynomolgus macaques
Description: Non-human primate PBMC hyperactivation. Whole blood from cynomolgus macaques was diluted with an equal volume of PBS. A solution of 90% Ficoll-Paque PLUS and 10% RPMI was made, and diluted whole blood was overlayed on top of the diluted Ficoll. Cells were centrifuged at 1000 rcf for 30 minutes at room temperature with no brakes. The buffy coat layer was collected and washed twice with PBS. If red blood cell contamination was present, cells were incubated in ACK lysis buffer for 2 minutes before being washed with PBS to remove lysed red blood cells.
Isolated PBMC were plated at 1×10^6 cells/well and cultured with or without hyperactivating stimuli. After 2 days incubation, cells were assessed for viability, and cell culture supernatant was used to measure cytokine output. Commercially available kits such as Biolegend LegendPlex kits were used as directed by manufacturer's protocol to quantify cytokines of interest.
PBMC were obtained from 13 cynomolgus macaques. Each activation condition was tested in triplicate, and the mean value of the triplicate is graphed for the animal sample. Repeated measures one-way ANOVA was used to test for statistical significance followed by Dunnett's multiple comparisons test.

[10] = system: human monocyte-derived dendritic cells (moDCs); experiment: DAMP screen: viability of human moDCs (CellTiter-Glo)
Description: Danger-Associated Molecular Pattern (DAMP) Screen. After 6 days of differentiation into moDC, cells were collected and counted. Cells were plated at 100,000 cells/well in R10 media in 96-well flat bottom tissue culture-treated plates. LPS, serotype O55:B5 (Enzo Life Sciences) was added to a final concentration of 1 μg/mL in each well. […] Cells were incubated at 37° C., 5% CO2 for two days. Cell cultures were then used for endpoint analyses.
Endpoint Analyses. After culturing moDCs with PAMPs and DAMPs for two days, supernatant and cell samples were collected for analysis.
(§6) Quantification of Cell Viability. Cell viability was assessed by quantifying the presence of ATP as an indicator of metabolically active cells using the CellTiter-Glo Luminescent Cell Viability Assay (Promega). Metabolic activity was assessed following manufacturer's instructions. The CellTiter-Glo reagent was mixed with the cell pellets and remaining supernatant, and transferred to a white, opaque 96-well plate. Luminescence was measured on all wavelengths on a Spectramax iD3 plate reader (Molecular Devices) using an integration time of 500 ms. Percent viability was calculated relative to the control condition of moDCs treated with LPS.

[11] = system: human monocyte-derived dendritic cells (moDCs); experiment: Lipid titration: viability of human moDCs (CellTiter-Glo)
Description: Lipid Titration. After 6 days of differentiation into moDC, cells were collected and counted. Cells were replated at 100,000 cells/well in R10 media in 96-well flat bottom tissue culture-treated plates. LPS, serotype 055:B5 (Enzo Life Sciences) was added to a final concentration of 1 μg/mL in each well. After the addition of LPS, lipids were prepared. […] After two days of culture, cell cultures were used for endpoint analyses.
Endpoint Analyses. After culturing moDCs with PAMPs and DAMPs for two days, supernatant and cell samples were collected for analysis. Cells in culture were pelleted by centrifugation at 400×g for 5 min.
as §6
Statistical Analyses. […] For each tested condition, cells from each donor were plated to be tested in triplicate.

[12] = system: human memory CD4+ T cells; experiment: Human moDC coculture with memory CD4 T cells: cytokine secretion; type: cell-based; settings: moDC treated with R848 + lipid; limiting anti-CD3; 2 days after T cell addition
Description: Human moDC coculture with memory CD4 T cells. Human monocytes were isolated from leukopheresis products using Miltenyi StraightFrom LeukoPak CD14 microbeads as directed by manufacturer. Custom PBMC isolation microbead kits from Miltenyi were used to separate PBMCs from red blood cells and granulocytes from the same blood products. After PBMC purification, Miltenyi human memory CD4+ T cell isolation kits were used to negatively select the CD45RO+ fraction. Cells were cryogenically stored until ready for use in experiments.
Human monocytes were differentiated into dendritic cells as previously described using recombinant human GM-CSF and IL-4 for 6 days. moDCs were plated in R10 media at 5E4 cells/well into 96-well U-bottom microplates for hyperactivations. […] T cell stimulating anti-CD3 antibody was added into the culture (with or without blocking anti-IL-1beta antibody) prior to T cell addition. Autologous frozen memory CD4 T cells were thawed, resuspended in R10 media and added at 2.5×10^5 cells/well (ratio 1:5, DC:T cell). After two days incubation, cell culture supernatant was collected and used for measuring cytokine secretion. Commercially available kits such as Biolegend LegendPlex kits were used as directed by manufacturer's protocol to quantify cytokines of interest.
Four donors were tested with each experimental condition tested in triplicate. […]

[13] = stimulus as labelled, no hyperactivating lipid
[14] = high dose PAMP + 22:0 Lyso PC 20 μM
[15] = 41.3 μM lipid + LPS 1 μg/mL, 2 days, Table 1-2
[16] = 82.5 μM lipid + LPS, selected lipids, Table 1-3 (repeats Table 1-1)
[17] = 10.3 μM lipid + LPS 1 μg/mL, 2 days, Table 1-5
[18] = 20.6 μM lipid + LPS, human moDCs, 4 donors, mean (SD in wrapped line below)
[19] = 82.5 uM lipid + R848 vs R848 alone, 2 days
[20] = 41.3 μM lipid + LPS 1 μg/mL, 2 days, relative to LPS-treated moDCs, Table 1-2
[21] = 82.5 μM lipid + LPS 1 μg/mL, 2 days, relative to LPS-treated moDCs, Table 1-1
[22] = 10.3 μM lipid + LPS 1 μg/mL, 2 days, relative to LPS-treated moDCs, Table 1-5

“GM-CSF: human GM-CSF (Peprotech), added at 10 ng/mL” was tested, and the “IL-1β secretion (in words)” value [1] was “neither GM-CSF nor 2′3′cGAMP induced significant IL-1β secretion”, the “IFNγ secretion, fold change relative to R848 alone (in words)” value [2, 13] was “neither GM-CSF nor 2′3′cGAMP elicited a substantial fold change in IFNγ secretion over R848 alone” and the “IL-1β secretion (in words)” value [2, 13] was “did not induce levels of IL-1β secretion from human PBMCs significantly above background levels”.

With `CCCCCCCCCCCCCCCC(=O)OCC(CSC[C@H](N)C(=O)N[C@@H](CO)C(=O)N[C@@H](CCCCN)C(=O)N[C@@H](CCCCN)C(=O)N[C@@H](CCCCN)C(=O)N[C@@H](CCCCN)C(=O)O)OC(=O)CCCCCCCCCCCCCCC` (some centres unmarked) [Pam2CSK4] (H-C(X1)SKKKK-OH; N-terminus and C-terminus assumed) the “IL-1β secretion (in words)” value [3, 14] was “enabled IL-1β secretion; also recorded: induced IL-1β secretion”, the “IL-1β secretion (in words)” value ([3]; low dose PAMP + 22:0 Lyso PC) was “IL-1β secretion was only observed” and the “cell viability (in words)” value [4, 14] was “little to no effect on cell viability”. For the same compound, the “cell viability (in words)” value ([4]; low dose PAMP + 22:0 Lyso PC) was “Neither R848 nor Pam2CSK4 at the lower concentrations tested affected cell viability”.

For `CCCCCCCCCCCCCCCC(=O)OC[C@H](COP(=O)([O-])OCC[N+](C)(C)C)OC(=O)CCCC(=O)O` [PGPC, 1-palmitoyl-2-glutaryl-sn-glycero-3-phosphocholine, reference compound], the IL-1β secretion [5, 15] was 132.9 pg/mL, the IL-1β secretion [5, 16] was 271.6 pg/mL and the IL-1β secretion [6, 17] was 52.8 pg/mL. The IL-1β secretion [6, 18] was 69.2 pg/mL, the “Activity Units (AU) ± SD (lipid activity index)” value [6] was 3.46 ± 4.14 AU and the “relative cell viability (in words)” value [7] was “somewhat toxic to canine PBMCs”. For the same compound, the “IL-1β secretion (in words)” value ([2]; lipid 82.5 μM combined with R848 1 μg/mL) was “did not induce substantially higher levels of IL-1β than R848 alone”, the “human PBMC viability (in words)” value [8] was “not observed to be toxic” and the “cytokine fold changes relative to R848 alone (in words)” value ([9]; 41.3 uM lipid + R848) was “not as markedly increased”. The “IL-1beta output (in words)” value ([9]; 82.5 uM lipid + R848 1 μg/mL vs R848 alone, 2 days) was “increased the IL-1beta output”, the “IFN-beta secretion (in words)” value [9, 19] was “increased” and the “IFN-gamma secretion (in words)” value [9, 19] was “significantly increased”. The “IL-8 secretion (in words)” value [9, 19] was “increased”, the “IL-17a secretion (in words)” value [9, 19] was “increased” and the “IL-23 secretion (in words)” value [9, 19] was “increased”. For the same compound, the “Relative Viability (%) ± SD” value [10, 20] was 87.2%, the “Relative Viability (%) ± SD” value [10, 21] was 58.6% and the “Relative Viability (%) ± SD” value [10, 16] was 58.6%. The “moDC viability (in words)” value ([10]; human moDCs, lipid screens of Example 1) was “not observed to be toxic” and the “Relative Viability (%) ± SD” value [11, 22] was 98.5%.

In the case of `Nc1nc2c(ncn2[C@@H]2O[C@@H]3COP(=O)(O)O[C@H]4[C@@H](O)[C@H](n5cnc6c(N)ncnc65)O[C@@H]4COP(=O)(O)O[C@@H]2[C@@H]3O)c(=O)[nH]1` [2′3′cGAMP, reference compound], the “IL-1β secretion (in words)” value [1] is reported as “neither GM-CSF nor 2′3′cGAMP induced significant IL-1β secretion” and the “IFNγ secretion, fold change relative to R848 alone (in words)” value [2, 13] is reported as “neither GM-CSF nor 2′3′cGAMP elicited a substantial fold change in IFNγ secretion over R848 alone”.

In the case of `CCOC(=O)C1=Cc2ccc(-c3cccc(C#N)c3)cc2N=C(N)C1` [TL8-506], the “IL-1β secretion (in words)” value [3, 14] is reported as “enabled IL-1β secretion; also recorded: induced IL-1β secretion”.

In the case of `CCCCCCCCCC(=O)OC[C@@H](O)COP(=O)([O-])OCC[N+](C)(C)C` [10:0 LYSO PC], the IL-1β secretion [5, 15] is reported as 33.3 pg/mL, the IL-1β secretion [5, 16] is reported as 37.8 pg/mL and the IL-1β secretion [6, 17] is reported as 35.7 pg/mL. For the same compound, the IL-1β secretion [6, 18] was 35.2 pg/mL, the “Activity Units (AU) ± SD (lipid activity index)” value [6] was 0.00 ± 0.00 AU and the “IFN-gamma (Th1 response) from cocultured memory CD4 T cells (in words)” value [12] was “not detected”. The “Relative Viability (%) ± SD” value [10, 20] was 97.8%, the “Relative Viability (%) ± SD” value [10, 21] was 95.2% and the “Relative Viability (%) ± SD” value [10, 16] was 95.2%. The “Relative Viability (%) ± SD” value [11, 22] was 100.5% and the “Relative Viability (%) ± SD” value ([11]; 20.6 μM lipid + LPS, human moDCs, 4 donors, relative to LPS alone) was 100.4%.
